19 molecules from patent EP2131831B1, “[…] ACIDS AND POLY-L-LYSINE FOR COMBATING […]-ORGANISMS” (priority 2007, dated 2008) can be followed below.

The subject of assay [1] is Escherichia coli ou Staphylococcus aureus. The assay is described as follows: Visual comparison of bactericidal activity, free fatty acids vs conjugates. Set-up: key to Activité bactéricide sur Escherichia coli ou Staphylococcus aureus de l'acide gras seul: 0: pas d'activité, culture négative; +: correspond à 10^3 colonies; ++: correspond à 10^4 colonies; +++: correspond à 10^6 colonies; ++++: correspond à 10^7 colonies. Type of assay: cell-based. As to conditions: visual scale; for Activité bactéricide sur Escherichia coli ou Staphylococcus aureus du conjugué: conjugate of the named fatty acid according to the invention; for Activité bactéricide sur Escherichia coli ou Staphylococcus aureus de l'acide gras seul: free, unbound fatty acid. The text has this:
Les résultats sont évalués visuellement selon l'échelle suivante : • 0 pas d'activité, culture négative • + correspond à 10^3 colonies • ++ correspond à 10^4 colonies • +++ correspond à 10^6 colonies, et • ++++ correspond à 10^7 colonies.

A further assay has as its system Staphylococcus aureus. The assay is described as follows: Lysis zone on agar plate. Type of assay: cell-based. As to conditions: fatty acid on poly-L-Lysine 5×10^-3M, 50µl, 16 h at 37°.
For the next assay, the system named is Escherichia coli. The assay is described as follows: Lysis zone on agar plate. Type of assay: cell-based. The note with it: fatty acid on poly-L-Lysine 5×10^-3M, 50µl, 16 h at 37°.
A further assay deals with Candida albicans. The note with it: fatty acid on poly-L-Lysine 5×10^-3M, 50µl, 16 h at 37°. An excerpt:
(§1) Les différents essais ont été réalisés selon le mode opératoire décrit en suivant. Les effets anti-bactéricides et anti-fongiques des solutions testées ont été évalués sur des boîtes contenant des milieux de cultures appropriés à la croissance : • gélose chocolat haemophilus pour la culture de Neisseria, • gélose BCP pour les germes peu exigeants, • gélose Mueller Hinton 2 (MH2-F) pour la majorité des souches bactériennes sauf Neisseria et les streptocoques, • gélose columbia ANC (COL ANC-F) pour les streptocoques, • gélose Sabouraud gentamicine chloramphénicol (SAB GENTA CHL-F) pour les candidas albicans et les levures en général, et • milieu Leowenstein, Coletsos pour Mycobacterium tuberculosis.
(§2) Les boîtes sont recouvertes par 1ml de solution bactérienne ou mycosique à la concentration de 0,5 à 1 de Mac Farland (lecture au densitomètre) soit 1,5×10^8 bactéries/ml.
(§3) La boîte est ensuite séchée 15 minutes à 37°, et on applique 2 gouttes (50µl) de chaque solution à tester.
(§4) La boîte de culture est recouverte après 16 heures d'incubation à 37°.
(§5) Chaque plage de lyse due à l'activité anti-bactérienne ou anti-fongique des conjugués est mesurée. La lecture de l'effet bactéricide ou antifongique est mesurée en cm^2.

A further assay has as its system Enterobacter Hafniae. The note with it: fatty acid on poly-L-Lysine 5×10^-3M, 50µl, 16 h at 37°.
Description: as §1, §2, §3, §4, §5

A further assay deals with Klebsiella oxytoca. As to conditions: fatty acid on poly-L-Lysine 5×10^-3M, 50µl, 16 h at 37°.
Description: as §1, §2, §3, §4, §5

The next assay concerns Morganella Morganii. As to conditions: fatty acid on poly-L-Lysine 5×10^-3M, 50µl, 16 h at 37°.
Description: as §1, §2, §3, §4, §5

The next assay relates to Proteus Mirabilis. As to conditions: fatty acid on poly-L-Lysine 5×10^-3M, 50µl, 16 h at 37°.
Description: as §1, §2, §3, §4, §5

The subject of a further assay is Streptocoque B. The note with it: fatty acid on poly-L-Lysine 5×10^-3M, 50µl, 16 h at 37°.
Description: as §1, §2, §3, §4, §5

The subject of another assay is Streptocoque D. The note with it: fatty acid on poly-L-Lysine 5×10^-3M, 50µl, 16 h at 37°.
Description: as §1, §2, §3, §4, §5

In another assay the test system is Citrobacter koserii. As to conditions: Citro bacter koserii; fatty acid on poly-L-Lysine 5×10^-3M; 50µl; 16 h at 37°.
The next assay has as its system Nesseria. As to conditions: fatty acid on poly-L-Lysine 5×10^-3M, 50µl, 16 h at 37°.
The subject of assay [2] is souche multirésistante de staphylococcus epidermidis. As to conditions: each component's concentration within the combined solution capryl-poly-L-Lysine-lauryl + pyruvate-poly-L-Lysine.
The subject of a further assay is Pseudomonas aeruginosa. Kind of assay: Lysis zone on agar plate. The format is cell-based. The note with it: fatty acid on poly-L-Lysine 5×10^-3M, 50µl, 16 h at 37°.

For `CCCCCCCCCC(=O)O` [Acide Caprique], in [1], the “Activité bactéricide sur Escherichia coli ou Staphylococcus aureus du conjugué” value is given as “+++ (correspond à 10^6 colonies)” and the “Activité bactéricide sur Escherichia coli ou Staphylococcus aureus de l'acide gras seul” value is given as “++++ (correspond à 10^7 colonies)”.

As to `CCCCCC(=O)O` [Acide Caproïque], in [1], the “Activité bactéricide sur Escherichia coli ou Staphylococcus aureus du conjugué” value is “+++ (correspond à 10^6 colonies)” and the “Activité bactéricide sur Escherichia coli ou Staphylococcus aureus de l'acide gras seul” value is listed as “++ (correspond à 10^4 colonies)”.

On to `CCCCCCCCCCCC(=O)O` [Acide Laurique], for which, in assay [1], the “Activité bactéricide sur Escherichia coli ou Staphylococcus aureus du conjugué” value is reported as “++ (correspond à 10^4 colonies)” and the “Activité bactéricide sur Escherichia coli ou Staphylococcus aureus de l'acide gras seul” value is given as “++++ (correspond à 10^7 colonies)”.

On to `CCCCCCCCCCCCCC(=O)O` [Acide Myristique], for which, in [1], the “Activité bactéricide sur Escherichia coli ou Staphylococcus aureus du conjugué” value was “+ (correspond à 10^3 colonies)” and the “Activité bactéricide sur Escherichia coli ou Staphylococcus aureus de l'acide gras seul” value is recorded as “+ (correspond à 10^3 colonies)”.

Consider `CCCCCCCC/C=C\CCCCCCCC(=O)O` [Acide Oléique], for which, in assay [1], the “Activité bactéricide sur Escherichia coli ou Staphylococcus aureus du conjugué” value was “+ (correspond à 10^3 colonies)” and the “Activité bactéricide sur Escherichia coli ou Staphylococcus aureus de l'acide gras seul” value is reported as “+ (correspond à 10^3 colonies)”.

In the case of `CCCCCCCCCCCCCCCC(=O)O` [Acide Palmitique], in assay [1], the “Activité bactéricide sur Escherichia coli ou Staphylococcus aureus du conjugué” value is listed as “+ (correspond à 10^3 colonies)” and the “Activité bactéricide sur Escherichia coli ou Staphylococcus aureus de l'acide gras seul” value turned out to be 0.

Consider `CC(=O)O` [C2 = acetate], for which, in assay [1], the “Activité bactéricide sur Escherichia coli ou Staphylococcus aureus du conjugué” value was “+++ (correspond à 10^6 colonies)” and the “Activité bactéricide sur Escherichia coli ou Staphylococcus aureus de l'acide gras seul” value was determined as 0.

As to `CCCCC(=O)O` [C5 = acide valérique, acide valérique], in assay [1], the “Activité bactéricide sur Escherichia coli ou Staphylococcus aureus du conjugué” value was “+++ (correspond à 10^6 colonies)” and the “Activité bactéricide sur Escherichia coli ou Staphylococcus aureus de l'acide gras seul” value amounted to 0.

In the case of Acide Caprylique, in assay [1], the “Activité bactéricide sur Escherichia coli ou Staphylococcus aureus du conjugué” value is listed as “+++ (correspond à 10^6 colonies)” and the “Activité bactéricide sur Escherichia coli ou Staphylococcus aureus de l'acide gras seul” value was “+++ (correspond à 10^6 colonies)”.

As for Acide Palmitoléique, in [1], the “Activité bactéricide sur Escherichia coli ou Staphylococcus aureus du conjugué” value is on record as “+++ (correspond à 10^6 colonies)” and the “Activité bactéricide sur Escherichia coli ou Staphylococcus aureus de l'acide gras seul” value is listed as “++ (correspond à 10^4 colonies)”.

With Farnesyl-cystéine, in assay [1], the “Activité bactéricide sur Escherichia coli ou Staphylococcus aureus du conjugué” value is listed as “++ (correspond à 10^4 colonies)” and the “Activité bactéricide sur Escherichia coli ou Staphylococcus aureus de l'acide gras seul” value is recorded as 0.

For “acétyl-poly-L-Lysine [Acétyl- poly-L-Lysine]”, the plage de lyse in the assay with Staphylococcus aureus was 1,68 cm^2; in the assay with Escherichia coli, 0 cm^2; in the assay with Candida albicans, 1,97cm^2; in the assay on Enterobacter Hafniae it was 2,71 cm^2; in the assay with Klebsiella oxytoca, 3,14 cm^2; in the assay on Morganella Morganii, 0 cm^2. Moreover, the plage de lyse in the assay on Proteus Mirabilis is on record as 0 cm^2; with Streptocoque B, 3,14 cm^2 colonies; with Streptocoque D it was 4,15cm^2; in the assay with Citrobacter koserii, 1,77 cm^z cm^2; in the assay with Alcalescens Diaspar, 1,4cm^2; in the assay with Nesseria it was 2,27cm^2.

Regarding butyrate [C4 = butyrate], in assay [1], the “Activité bactéricide sur Escherichia coli ou Staphylococcus aureus du conjugué” value is on record as “+++ (correspond à 10^6 colonies)” and the “Activité bactéricide sur Escherichia coli ou Staphylococcus aureus de l'acide gras seul” value came out at 0.

Regarding “butyryl-poly-L-Lysine [Butyryl- poly-L-Lysine]”, the plage de lyse in the assay on Staphylococcus aureus is 1,82 cm^2; in the assay on Escherichia coli, 2,65 cm^2; in the assay with Candida albicans, 2,3 cm^2; in the assay with Enterobacter Hafniae, 2,03 cm^2; in the assay on Klebsiella oxytoca, 0 cm^2; with Morganella Morganii, 0 cm^2. Besides, the plage de lyse in the assay with Proteus Mirabilis was 0 cm^2; in the assay on Streptocoque B it was 1,33 cm^2 qqls colonies; in the assay with Streptocoque D, 0 cm^2; in the assay with Citrobacter koserii it was 1,77 cm^2; in the assay with Alcalescens Diaspar, 0,85 cm^2; with Nesseria, 0,78 cm^2.

For “capryl-poly-L-Lysine-lauryl [capryl-poly-Lysine-lauryl]”, in [2], the concentration minimale inhibitrice is < 1,25×10^5 M.

On to lactyl-Poly-L-Lysine, for which the plage de lyse in the assay on Staphylococcus aureus is 1,82 cm^2; in the assay with Escherichia coli, 1,92 cm^2; in the assay with Pseudomonas aeruginosa, 2,34 cm^2; in the assay on Candida albicans it was 1,05cm^2; in the assay on Enterobacter Hafniae, 1,44cm^2; in the assay with Klebsiella oxytoca it was 0 cm^2. The plage de lyse in the assay with Morganella Morganii was 0 cm^2; in the assay with Proteus Mirabilis it was 0 cm^2; in the assay with Streptocoque B, “peu sensible”; in the assay on Streptocoque D it was 2,01 cm^2; in the assay with Citrobacter koserii it was 1,13 cm^2; with Alcalescens Diaspar, 1,53cm^2. Also, in the assay with Nesseria, the plage de lyse is reported as 1,65cm^2.

In the case of propionate [C3 = propionate], in assay [1], the “Activité bactéricide sur Escherichia coli ou Staphylococcus aureus du conjugué” value was “+++ (correspond à 10^6 colonies)” and the “Activité bactéricide sur Escherichia coli ou Staphylococcus aureus de l'acide gras seul” value worked out at 0.

For “propionyl-poly-L-Lysine [Propionylpoy-L-lysine]”, the plage de lyse is 2,3 cm^2 in the assay on Staphylococcus aureus; 0 cm^2 with Pseudomonas aeruginosa; 2,13cm^2 with Candida albicans; 1,12 cm^2 with Enterobacter Hafniae; 0 cm^2 with Klebsiella oxytoca; 0 cm^2 with Morganella Morganii. Moreover, the plage de lyse with Proteus Mirabilis is given as 0 cm^2; with Streptocoque B, 0 cm^2; in the assay with Streptocoque D it was 0 cm^2; in the assay on Citrobacter koserii, 0 cm^2; in the assay with Alcalescens Diaspar, 1,13cm^2 inhibition partielle; in the assay with Nesseria, 1,13 cm^2.

For the molecule pyruvyl-poly-L-Lysine, the plage de lyse was 2,13 cm^2 in the assay with Staphylococcus aureus; 2,09 cm^2 in the assay with Escherichia coli; 1,32 cm^2 in the assay with Pseudomonas aeruginosa; 2,46 cm^2 in the assay on Candida albicans; 2,27 cm^2 in the assay on Enterobacter Hafniae; 1,33 cm^2 with Klebsiella oxytoca. Besides, the plage de lyse in the assay on Morganella Morganii was 0 cm^2; in the assay on Proteus Mirabilis, 0 cm^2; in the assay on Streptocoque B, 1,77cm^2 qqls colonies; in the assay with Streptocoque D it was 2,27 cm^2; in the assay on Citrobacter koserii, 1,54 cm^2; in the assay on Alcalescens Diaspar, 1,53cm^2. Besides, the plage de lyse in the assay on Nesseria is given as 2,01cm^2. Further, the concentration minimale inhibitrice in assay [2] is on record as < 1,25×10^4 M.
